Results on 106 compounds are retold here after PubChem BioAssay AID1996.

As a reminder, the kinetic solubility is the concentration staying in solution when a stock, usually in DMSO, is diluted into the medium.

SMILES strings stand for the structures. Converted amounts (≈) assume the structure as drawn.

The conditions of this series: buffer; pH 7.4; 200.0 µM.
Compound `O=S(=O)(c1cccs1)N1CCN(c2ccc(F)cc2)CC1` showed a kinetic solubility of 9.6 µg/mL (≈ 29.4 µM).
On to `CNc1ncnc2sc(-c3ccccc3)cc12`, for which the kinetic solubility came to 4.3 µg/mL (≈ 17.8 µM).
Turning to `NS(=O)(=O)c1ccc(NC(=O)CSc2ncccn2)cc1`, the solubility (kinetic) is more than 48.7 µg/mL.
With `COc1ccc2c(c1)C(NC(C)=O)C(=O)N2CCc1ccccc1` (stereo unspecified), the kinetic solubility came out at 46.6 µg/mL (≈ 144 µM).
Compound `CC(C)(C)N(Cc1ccccc1)C(=O)c1cccs1` displayed a solubility (kinetic) of 1.7 µg/mL (≈ 6.22 µM).
The figure for `O=C(COC(=O)/C=C/c1cccs1)NC1CCCCC1` is 9.4 µg/mL (≈ 32 µM); for `Nc1ccc(C(=O)O)cc1S(=O)(=O)O` it is more than 32.6 µg/mL.
On to `COC(=O)C1CCN(CC(=O)NC(=O)NC2CCCCC2)CC1`, for which the solubility (kinetic) is more than 48.8 µg/mL.
In the case of `COc1ccc(-c2nc(N)ncc2-c2ccccc2)c(O)c1`, the kinetic solubility turned out to be 0.9 µg/mL (≈ 3.07 µM).
On to `Fc1cccc(Cl)c1CSC1=NCCS1`, for which the solubility (kinetic) was 2.3 µg/mL (≈ 8.79 µM).
`COCCNC(=O)C(=O)NNC(=O)CCc1ccccc1`: the solubility (kinetic) is more than 44 µg/mL.
The value for `Cc1ccnc(NC(=O)c2cccc(NC(=O)c3ccccc3C)c2)c1` was 2.1 µg/mL (≈ 6.08 µM).
Compound `CCC(=Nc1ccccc1)C1=C(O)CCCC1=O` gave a kinetic solubility of 19.9 µg/mL (≈ 81.8 µM).
`CC(NS(=O)(=O)c1ccc([N+](=O)[O-])cc1)C(=O)NN` (stereo unspecified) came in with a kinetic solubility of more than 43.2 µg/mL.
In the case of `CN(C)C(=O)c1ccccc1NC(=O)Cc1cccc2ccccc12`, the kinetic solubility is 49.8 µg/mL (≈ 150 µM).
Consider `O=C(Nc1ccc(SC(F)F)cc1)c1ccccc1F`, for which the solubility (kinetic) came out at 6.1 µg/mL (≈ 20.5 µM).
The figure for `CCCNC(=O)c1ccccc1SCc1c(C)noc1C` is more than 45.7 µg/mL.
With `COc1ccc(OC)c(NC(=O)c2csc(Cl)c2OC)c1`, the kinetic solubility is less than 0.7 µg/mL.
Regarding `O=C(NNC(=O)c1ccc2nc[nH]c2c1)c1ccccc1`, the kinetic solubility was more than 42 µg/mL.
`CCCCC(=O)OCc1nc2ccccc2s1`: the solubility (kinetic) worked out at 11.2 µg/mL (≈ 44.9 µM).
On to `N#Cc1cc(-c2ccccc2)nc(N2CCNCC2)n1`, for which the solubility (kinetic) is more than 39.8 µg/mL.
The compound `Cc1ccsc1C(=O)NCc1ccc(F)cc1` yielded a solubility (kinetic) of more than 37.4 µg/mL.
The figure for `O/N=C/c1ccn(-c2ccc(Br)cc2)c1` is 2.6 µg/mL (≈ 9.81 µM).
`CN1C(=O)c2ccccc2Sc2ccc(C(=O)O)cc21` registered a solubility (kinetic) of more than 42.8 µg/mL.
The figure for `Cc1ccc(S(=O)(=O)N2CCN(c3ccccn3)CC2)cc1` is 0.3 µg/mL (≈ 0.945 µM); for `COc1ccc(C2=NCC(=S)Nc3ccc(Cl)cc32)cc1OC` it is less than 0.4 µg/mL.
The value for `CN(C)C(=O)c1ccc(NC(=O)c2ccccc2-c2ccccc2)cc1` was more than 51.7 µg/mL.
Take `O=C(CS(=O)(=O)c1ccccc1)Nc1nc2ccccc2s1`: the kinetic solubility is more than 49.9 µg/mL.
As to `CC(CNC(=O)c1ccc(N)cc1)NC(=O)c1ccc(N)cc1` (stereo unspecified), the solubility (kinetic) was determined as 42.8 µg/mL (≈ 137 µM).
The figure for `OCC1CCCCN1C(=S)NCc1ccco1` (stereo unspecified) is 32.1 µg/mL (≈ 126 µM); for `O=C(c1cc(-c2ccccc2)nc2ccccc12)N1CCCC1` it is 42 µg/mL (≈ 139 µM); for `COc1ccc(NC(=S)N2CCCCCC2)cc1OC` it is 42.4 µg/mL (≈ 144 µM).
For `CCOC(=O)N1CCc2c(sc(NC(=O)CN3CCOCC3)c2C#N)C1`, the kinetic solubility amounted to 48.5 µg/mL (≈ 128 µM).
`Cn1c(=S)[nH]c2sc3c(c2c1=O)CCC(C(C)(C)C)C3` (stereo unspecified): the solubility (kinetic) is less than 0.3 µg/mL.
The value for `COc1ccc(C2SCC(=O)N2c2ccccc2)cc1` (stereo unspecified) was 38.6 µg/mL (≈ 135 µM); that for `CC(C)NC(=O)COC(=O)c1ccccc1C(=O)c1ccccc1` was more than 48.8 µg/mL.
The value for `Cc1cc(C)cc(NC(=O)NCc2c(-c3ccccc3)noc2C)c1` was 0.8 µg/mL (≈ 2.39 µM); that for `COCCCNC(=O)c1ccccc1C(F)(F)F` was more than 39.2 µg/mL; that for `O=C(O)/C=C/C(=O)Nc1cc(F)ccc1F` was more than 34.1 µg/mL.
For `COc1ccc(NC(=O)c2cccc(-c3ccc(O)cc3)c2)cn1`, the solubility (kinetic) was 9.7 µg/mL (≈ 30.3 µM).
The value for `CCCCCOc1ccc(C(=O)CCN2CCOCC2)cc1.Cl` was 34.9 µg/mL; that for `CN(C(=O)c1ccc(Br)o1)C1CCCCC1` was 32.2 µg/mL (≈ 113 µM).
`O=C(COC(=O)CNC(=O)c1ccc(Cl)cc1)Nc1ccc(Cl)cn1` had a solubility (kinetic) of 3.2 µg/mL (≈ 8.37 µM).
Turning to `COc1ccc(CCNC(=O)CNC(=O)c2ccco2)cc1`, the kinetic solubility was more than 45.3 µg/mL.
Regarding `N#C/C(=C\c1cccnc1)c1ccccc1[N+](=O)[O-]`, the solubility (kinetic) worked out at 8 µg/mL (≈ 31.8 µM).
`Cc1cc(=O)[nH]c(SCC(=O)N2CC3(C)CC2CC(C)(C)C3)n1` (stereo unspecified) yielded a kinetic solubility of more than 50.3 µg/mL.
Take `COc1ccc(N=c2ssnc2Cl)cc1`: the solubility (kinetic) is 0.4 µg/mL (≈ 1.55 µM).
The compound `CC(=O)N1CCN(c2ccc(NC(=O)c3ccc(F)cc3)cc2)CC1` showed a kinetic solubility of 10.6 µg/mL (≈ 31 µM).
Compound `COc1cccc(C2(O)C(=O)Nc3ccccc32)c1` (stereo unspecified) showed a kinetic solubility of more than 38.3 µg/mL.
Consider `Cc1ccc(NC(=O)COC(=O)c2cccnc2Cl)cc1S(=O)(=O)N1CCOCC1`, for which the solubility (kinetic) stood at 66 µg/mL (≈ 145 µM).
`CCOCCCNC(=O)c1cc2c(=O)n3ccccc3nc2s1` returned a solubility (kinetic) of 46.4 µg/mL (≈ 140 µM).
With `CCOC(=O)N1CCN(C(=O)c2cc3cc(C)ccc3[nH]2)CC1`, the kinetic solubility was determined as 41.6 µg/mL (≈ 132 µM).
Take `CC[n+]1oc(-c2ccccc2)cc1C.F[B-](F)(F)F`: the kinetic solubility is 37.4 µg/mL.
The value for `CC1CCN(C(=O)COC(=O)/C=C/c2ccc([N+](=O)[O-])cc2)CC1` was 5.7 µg/mL (≈ 17.2 µM); that for `COc1ccc(CC(=O)Nc2ccncc2Cl)cc1` was more than 41.5 µg/mL; that for `Cc1ccccc1C(C)NS(=O)(=O)c1ccc2c(c1)OCCO2` (stereo unspecified) was more than 50 µg/mL.
For `CC1C(=O)Nc2ccccc2N1C(=O)c1c(F)cccc1F` (stereo unspecified), the kinetic solubility was more than 45.3 µg/mL.
`CNCCc1ccccc1` had a solubility (kinetic) of less than 0.3 µg/mL.
`Cc1cccnc1NC(=O)NC(=O)c1ccc(C(C)(C)C)s1` displayed a solubility (kinetic) of 9.1 µg/mL (≈ 28.7 µM).
`CC1CN(CC(=O)NCc2ccc(Cl)cc2)CC(C)O1` (stereo unspecified) gave a solubility (kinetic) of more than 44.5 µg/mL.
The value for `COc1ccc(-n2c(C)c(C)c3c(NCCN(C)C)ncnc32)cc1` was more than 50.9 µg/mL; that for `O=C(NCc1ccccc1)c1ccccc1Br` was 36.4 µg/mL (≈ 125 µM).
`O=C(NCc1ccco1)c1ccccc1` registered a kinetic solubility of more than 30.2 µg/mL.
Consider `CC(=O)Nc1ccc(NC(=O)C2CC(=O)N(C(C)C)C2)cc1` (stereo unspecified), for which the kinetic solubility was determined as 43.4 µg/mL (≈ 143 µM).
The compound `CCOc1ccccc1C(=O)NCCCCNC(=O)c1ccccc1OCC` displayed a solubility (kinetic) of 10.2 µg/mL (≈ 26.5 µM).
`Cc1ccc(Cl)cc1NS(=O)(=O)Cc1ccccc1` gave a solubility (kinetic) of 9 µg/mL (≈ 30.4 µM).
In the case of `CCOC(=O)C1CCCN(c2c(NCCc3cccc(C)c3)c(=O)c2=O)C1` (stereo unspecified), the kinetic solubility came out at 18 µg/mL (≈ 48.6 µM).
Compound `COc1ccc(-n2c(C)cc(-c3cn4cccc(C)c4n3)c2C)cc1` had a kinetic solubility of 11.9 µg/mL (≈ 35.9 µM).
As to `CC(=O)c1c(-c2ccc(C)cc2)nc2c3ccccc3ccn12`, the solubility (kinetic) was less than 0.3 µg/mL.
Take `CCC(C)NC(=O)CSc1ccc(S(=O)(=O)N(C)C2CCCCC2)cn1` (stereo unspecified): the solubility (kinetic) came to 59.4 µg/mL (≈ 149 µM).
The figure for `Cc1cc(C)c(NC(=S)N(C)C)c(C)c1` is more than 33.4 µg/mL; for `Clc1ccc(OCCCCCN2CCOCC2)cc1` it is 26.6 µg/mL (≈ 93.7 µM).
In turn, `COCC(C)NC(=O)C(C)N1c2cccc3cccc(c23)S1(=O)=O` (stereo unspecified) came in with a kinetic solubility of 50.9 µg/mL (≈ 146 µM).
Take `Cc1c(C)n(CCCN(C)C)c2ncnc(Nc3ccc(F)cc3)c12`: the kinetic solubility was 48.7 µg/mL (≈ 143 µM).
The compound `O=C(Cn1cc(C(F)(F)F)ccc1=O)NCc1ccc(F)cc1` yielded a solubility (kinetic) of more than 49.2 µg/mL.
In the case of `Cc1cccc(C(=O)NCC(=O)OCC(=O)NC2CCCCC2)c1`, the kinetic solubility was more than 49.9 µg/mL.
In turn, `O=C(c1cccc([N+](=O)[O-])c1)N1CCN(Cc2ccccc2)CC1` displayed a solubility (kinetic) of more than 48.8 µg/mL.
`O=C(c1ccc2nc[nH]c2c1)N1CCN(c2cccc(Cl)c2)CC1` yielded a kinetic solubility of 42.7 µg/mL (≈ 125 µM).
In turn, `N#Cc1cccc(C(=O)Nc2cccc(S(=O)(=O)N3CCCC3)c2)c1` showed a kinetic solubility of 5.8 µg/mL (≈ 16.3 µM).
In turn, `Nc1ccccc1Sc1c[nH]c2ccccc12` returned a solubility (kinetic) of 27.8 µg/mL (≈ 116 µM).
The figure for `CC(C)CN1C(=O)C(=O)N(CC(=O)c2ccc3c(c2)CCCC3)C1=O` is 47.2 µg/mL (≈ 138 µM).
As for `CC(C)(C)CC(=O)NCc1cccs1`, the solubility (kinetic) is more than 31.7 µg/mL.
`CC(CCc1ccccc1)NC(=O)c1ccc(F)cc1` (stereo unspecified) displayed a solubility (kinetic) of 33.6 µg/mL (≈ 124 µM).
As to `Cc1ccc(-c2csc(NC(=O)c3c(C)noc3C)n2)cc1C`, the kinetic solubility amounted to 1.7 µg/mL (≈ 5.19 µM).
Compound `COc1ccccc1NS(=O)(=O)c1cc(NC(=O)C2CCCO2)ccc1C` (stereo unspecified) showed a kinetic solubility of more than 58.6 µg/mL.
For `C(=C\c1ccco1)/c1ccc2ccccc2n1`, the kinetic solubility worked out at 10.7 µg/mL (≈ 48.4 µM).
The figure for `CCOC(=O)c1c(C)[nH]c(C)c1C(=O)COC(=O)c1cccnc1OCC` is more than 56.2 µg/mL; for `Oc1c(CN2CCCCC2)cc(Br)c2cccnc12` it is 33.6 µg/mL (≈ 105 µM); for `CC(C)(C)c1ccc(N2C(=O)CC(C/C=C/c3ccccc3)C2=O)cc1` (stereo unspecified) it is less than 0.7 µg/mL.
Compound `O=C(CC(c1ccc(F)cc1)c1ccco1)Nc1nccs1` (stereo unspecified) had a solubility (kinetic) of 14.7 µg/mL (≈ 46.5 µM).
For `CCOC(=O)c1c(C)[nH]c(NC(=O)Nc2ccc(NC(C)=O)cc2)c1C`, the solubility (kinetic) is 22.2 µg/mL (≈ 61.9 µM).
The figure for `Cc1ccc2nc(SCC3CCCCO3)[nH]c2c1` (stereo unspecified) is 37.4 µg/mL (≈ 143 µM); for `Cc1oc(S(=O)(=O)N2CCCC2)cc1C(=O)Nc1ccc(F)cc1` it is 1.5 µg/mL (≈ 4.26 µM).
`CCN1CCN(C2CC(=O)NC2=O)CC1` (stereo unspecified) had a solubility (kinetic) of more than 31.7 µg/mL.
For the compound `O=C(CNc1ccccc1)Nc1cccc2ccccc12`, the solubility (kinetic) was determined as 3.4 µg/mL (≈ 12.3 µM).
The value for `O=C(Nc1ncccc1Cl)c1cc2ccccc2o1` was 11.4 µg/mL (≈ 41.8 µM); that for `CC(=O)N/C(=N/c1nc(C)cc(C)n1)Nc1ccc(F)cc1F` was 1.6 µg/mL (≈ 5.01 µM).
Regarding `C=CCN=C1S/C(=C\N(C)C)C(=O)N1S(=O)(=O)c1ccc(C)cc1`, the solubility (kinetic) is 2.8 µg/mL (≈ 7.66 µM).
The value for `O=C(CCc1nc(-c2ccccn2)no1)NCc1ccc2c(c1)OCO2` was 52.5 µg/mL (≈ 149 µM); that for `Cc1ccccc1NC1(C#N)CCCCC1` was 3.6 µg/mL (≈ 16.8 µM).
The figure for `Cc1nc2ccc(NC(=O)c3ccc(=O)[nH]c3)cc2s1` is 13.7 µg/mL (≈ 48 µM); for `Cc1ccc(CN(C)C2CCN(C)CC2)cc1` it is 31.3 µg/mL (≈ 135 µM); for `COc1ccc(CCC(=O)NCCOc2ccccc2Cl)cc1` it is more than 50.1 µg/mL.
Regarding `CN(CC(=O)Nc1ccccc1Cl)C(=O)COC(=O)c1cccs1`, the solubility (kinetic) is more than 55 µg/mL.
In turn, `NS(=O)(=O)c1cccc(NC(=O)CN2CCCc3ccccc32)c1` returned a kinetic solubility of more than 51.8 µg/mL.
Compound `CC1CCN(C(=O)COC(=O)c2cc3ccccc3oc2=O)CC1` returned a solubility (kinetic) of more than 49.4 µg/mL.
